“Also recorded” adds a separate entry of the source.

The text below walks through data of patent US6846674B2, “Genetically modified fibroblast cells” (Deutsche Krebsforschungszentrum Stiftung des Offentlichen …, priority 2000, dated 2005).

Experiment [1] has as its system primary human keratinocytes. As to the kind of experiment: 2D coculture of c-jun −/− c-JunER™ fibroblasts with primary human keratinocytes. The following applies: 100 nM every 12 hours, three days, immunofluorescence. Format: cell-based. The text has this: The corresponding controls remained untreated.
Experiment [2] deals with keratinocytes (epithelial formation and differentiation). As to the kind of experiment: organotypical cultures with c-jun −/− fibroblasts, application of cytokines. Format: cell-based, human. The following applies: for phenotype obtained in organotypical cultures with c-jun −/−: FIG. 6. How it is done:
Type 1 collagen was prepared from rat tail tendons and provided at a concentration of 4 mg/ml in 0.1% acetic acid as rdady-to-use solution (Smola et al., 1993). The collagen gels used consisted of 80% by volume of 4 mg/ml collagen in 0.1% acetic acid, 10% by volume Hank's salt solution (concentrated tenfold) and 10% by volume FCS with or without cells (2×10^5 cells/ml). The liquid collagen was admixed with Hank's solution on ice and neutralized with 5 M NaOH with stirring (trypsinated cells taken up in FCS can then be added to the collagen solution by stirring). The gel solution was poured into cell culture dishes or 2.5 ml each into filter inserts (3 μm pore size, Becton Dickinson, Heidelberg, Germany) and allowed to stay in an incubator to form a gel for 1 hour. Sterile glass rings having an internal diameter of 18 mm (1.5 mm wall thickness, 12 mm height) were placed onto the gels and slightly pressed thereon. Following 1 h in the incubator, the collagen gels were equilibrated in DMEM with 10% FCS. After 24 h, the medium was withdrawn from the glass rings and 1 ml keratinocyte suspension (9×10^5 cells/ml FAD) each were seeded into the glass ring interior. After 24 h of incubation, the medium was removed from the keratinocytes so as to expose the cells to air. This time was defined as day 0 of the organotypcial cultures. DMEM having 10% FCS was exchanged every other day, the medium level in this case bordering on the top gel rim. For histological or immunohistochemical processing, the cultures were fixed or frozen. In order to detect proliferating cells in a culture by immunohistochemical methods, the cultures BrdU (Sigma) were added to the medium at a concentration of 65 μM 12 h prior to fixing.
2D cocultures on plastic dishes or glass slides or in 3D form as organotypical cultures were incubated in corresponding standard medium for 24 h. Thereafter, medium enriched with cytokines was added and the cultures were incubated therewith depending on the experiment for several hours or days, the medium being changed with factor added every other day. Supplier of the growth factors and antibodies: KGF (BTS, St. Leon, Germany); anti-GM-CSF, polyclonal, neutralizing (R&D-Systems, Wiesbaden, Germany); GM-CSF (Boehringer Mannheim, Germany) and anti-KGF, monoclonal, neutralizing (R&D-Systems).
In the case of monolayer cultures of adherent cells, the medium was withdrawn from the cells and the cells were fixed on the glass slides in 80% methanol for 5 min. and 100% acetone for 3 min. The slides were then dried and stored at −40° C. For the production of paraffin preparations, organotypical cocultures or skin biopsies wee fixed in 3.5% formaldehyde (in PBS+) for at least 24 h, and initially embedded in agar and then in paraffin (Medim, Vogel company, GieβSen, Germany). The preparations were cut into 2 μm sections which were stained histologically with hematoxylin (15 min.) and eosin (5 min.). Following deparaffinization it was also possible to use the paraffin sections for immunohistochemical analyses. For the production of frozen preparations, skin samples or organotypical cocultures were frozen on cork platelets in embedding gel (“Tissue Teck”, O.C.T., Frankfurt, Germany) on liquid nitrogen. The preparations were stored at −80° C. 5-μm sections were prepared using a freezing microtome, placed onto silanized slides and used for immunohistochemical analyses.
Paraffin sections were deparaffinized in a descending alcohol series and rinsed in PBS. Thereafter, the epitopes on the tissue sections were made accessible by boiling the sections in “Tuf” solution for 5 min. (Advanced Biotechnologies, Hamburg, Germany) and 0.1% trypsin at 37° C. or microwave treatment in 0.1 M citrate buffer for 30 min. Freeze sections were fixed in 80% methanol for 5 min., then in acetone for 2 min. For detecting the incorporation of BrdU (proliferation assay), the sections were incubated in 1.5 M HCI for 10 min. to denature the DNA strands. […]

As to `CC/C(=C(\c1ccc(O)cc1)c1ccc(OCCN(C)C)cc1)c1ccccc1` [4-OH-tamoxifen], the “enhanced expression of the differentiation marker K1/K10” value in experiment [1] is listed as “can be eliminated again”.
As for “GM-CSF: cytokine GM-CSF (Boehringer Mannheim, Germany)”, the “phenotype obtained in organotypical cultures with c-jun −/−” value in experiment [2] is given as “can partially be reversed”. For the same molecule, in experiment [2] (c-jun −/− fibroblasts), the K1/K10 expression entry is “expressed late”, the “differentiation status of the epithelium” value is reported as “does not correspond to the normal condition”, the epithelial formation entry is recorded as “eliminates the reduced epithelial formation; also recorded: effects an enhanced epithelial formation” and the “loricrin expression (timing)” value is given as “expressed prematurely”. In addition, in experiment [2] (c-jun −/− fibroblasts), the “transglutaminase, filaggrin and loricrin expression” value was “expressed enhancedly”.

B1: KGF: cytokine / growth factor KGF (BTS, St. Leon, Germany) (protein, UniProt P21781 32-194, looked up)
Fibroblast growth factor 7: CNDMTPEQMATNVNCSSPERHTRSYDYMEGGDIRVRRLFCRTQWYLRIDKRGKVKGTQEMKNNYNIMEIRTVAVGIVAIKGVESEFYLAMNKEGKLYAKKECNEDCNFKELILENHYNTYASAKWTHNGGEMFVALNQKGIPVRGKKTKKEQKTAHFLPMAIT
As for B1, the “phenotype obtained in organotypical cultures with c-jun −/−” value in experiment [2] is listed as “can partially be reversed”. Also, in experiment [2] (c-jun −/− fibroblasts), the “differentiation status of the epithelium” value is listed as “the full differentiation status is not restored” and the epithelial formation entry is “eliminates the reduced epithelial formation”. Also, in experiment [2] (c-jun −/− fibroblasts, histology), the “granular layer and expression of the differentiation markers filaggrin and loricrin” value is “lack”.
